From the NIST ThermoML archive (doi:10.1016/j.fluid.2010.02.020)
Where “and” joins values, the source holds several entries; their conditions need not be identical. Equal entries are not always repeated.

Conditions: for mass density: 101.33 kPa, Liquid, Vibrating tube method; for surface tension liquid-gas: Pendant drop shape

CCCn1cc[n+](C)c1.O=S(=O)([N-]S(=O)(=O)C(F)(F)F)C(F)(F)F
Conditions	mass density [kg/m3]	surface tension liquid-gas [mN/m]
293.15 K	1480.5	–
303.15 K	1470.8	–
312.9 K	–	32.5
313.15 K	1461.1	–
323.15 K	1451.5	–
333.15 K	1441.9	–
333.6 K	–	31.5
343.15 K	1432.4	–
353.15 K	1422.9	–
353.9 K	–	30.2
363.15 K	1413.5	–
373.15 K	1404	–
373.5 K	–	28.8
374.2 K	–	29.1
383.15 K	1394.5	–
393.15 K	1384.9	–
393.5 K	–	29.4
394.5 K	–	28
403.15 K	1375.3	–
413.15 K	1365.6	–
413.6 K	–	28.2
414.9 K	–	27.1
423.15 K	1355.8	–
433.15 K	1345.9	–
433.3 K	–	27.6
435.2 K	–	26.3
443.15 K	1335.9	–
453.15 K	1325.8	–
453.2 K	–	26.8
455.5 K	–	26.1
463.15 K	1315.6	–
473 K	–	24.4
473.15 K	1305.1	–
475.7 K	–	24.6

CCCCCn1cc[n+](C)c1.O=S(=O)([N-]S(=O)(=O)C(F)(F)F)C(F)(F)F
Conditions	mass density [kg/m3]	surface tension liquid-gas
293.15 K	1408.1	–
303.15 K	1398.7	–
312.7 K	–	29.5 mN/m
313.15 K	1389.4	–
313.2 K	–	30.5 mN/m
323.15 K	1380.3	–
333.15 K	1371.2	–
333.2 K	–	28.3 mN/m
343.15 K	1362.1	–
353.15 K	1353.1	–
353.4 K	–	27.3 mN/m
353.7 K	–	27.2 mN/m
363.15 K	1344	–
373.15 K	1335	–
373.5 K	–	26.3 mN/m
373.7 K	–	26.6 mN/m
383.15 K	1325.9	–
393.15 K	1316.8	–
393.7 K	–	24.7 mN/m and 25.6 mN/m
403.15 K	1307.6	–
413.15 K	1298.4	–
413.6 K	–	24.6 mN/m
413.8 K	–	23.5 mN/m
423.15 K	1288.6	–
433.15 K	1279.7	–
433.5 K	–	22.6 mN/m
433.7 K	–	23.7 mN/m
443.15 K	1270.3	–
453.15 K	1260.8	–
453.5 K	–	21.7 mN/m
453.6 K	–	22.8 mN/m
463.15 K	1251.1	–
473.15 K	1241.3	–
473.3 K	–	21.1 mN/m
473.6 K	–	21.7 mN/m
493 K	–	21.6 mN/m
493.2 K	–	20.8 mN/m
512.9 K	–	20.1 mN/m
